In patent publication US12667824B2, “Carbon dioxide absorbent” (MITSUBISHI GAS CHEMICAL COMPANY, INC., priority 2020, dated 2026):
Like-named read-outs stand apart in the source and are kept apart here.

How the values were obtained:
[1] = Amine value of amine compound (JIS K7237-1995 titration); type: physicochemical; conditions: 0.1 N perchloric acid-acetic acid titration
Method: The amine value was measured by the following measurement method in accordance with JIS K7237-1995. • (1) Dissolving 0.1 g of the amine compound in 20 mL of the acetic acid. • (2) Calculating the amine value by titrating the solution obtained in the above (1) with the 0.1 N perchloric acid-acetic acid solution using the automatic potentiometric titrator (AT-610 produced by Kyoto Electronics Manufacturing Co., Ltd.).

[2] = Maximum endothermic temperature of amine compound (DSC, volatilization); type: physicochemical; conditions: DSC 23 to 350° C., 10° C./min, nitrogen; volatilization of the amine compound
Method: DSC measurements were performed on the amine compounds used in Examples and Comparative Examples to measure the maximum endothermic temperature of the amine compounds as follows. First, a differential scanning calorimetry was performed on the amine compounds using a differential thermogravimetric analyzer (Product Name: DTG-60 produced by Shimadzu Corporation) under conditions of 23 to 350° C. of a measurement temperature range, 10° C./min of a heating rate, and a nitrogen atmosphere. From the DSC curve obtained thereby, the temperature at which the endothermic amount associated with the volatilization of the amine compound reached the maximum was calculated, and the temperature thereof was used as the maximum endothermic temperature of the amine compound.

[3] = Cycle evaluation (absorption, regeneration at 100° C. for 1 hour); conditions: before and after heating at 100° C. for 1 hour; for Weight Retention 1st Time: 1st regeneration; for Weight Retention 2nd Time: 2nd regeneration
Method: After the above evaluation of the carbon dioxide absorption capacity was completed, the amine compound was removed from the desiccator, and the amine compound with carbon dioxide absorbed was heated at 100° C. for 1 hour to release the carbon dioxide absorbed and regenerate the amine compound. At this time, weights of the amine compound before and after the heat treatment were measured, and a weight retention (1st time) was calculated.
Then, on the regenerated amine compound, the above evaluation of the carbon dioxide absorption capacity was performed again, and changes of the carbon dioxide concentration in the desiccator were measured after 2 hours and 24 hours (2nd time).
Then, the amine compound was removed from the desiccator, and the amine compound with carbon dioxide absorbed was heated at 100° C. for 1 hour to release carbon dioxide absorbed and regenerate the amine compound again. At this time, the weights of the amine compound before and after the heat treatment were measured, and the weight retention (2nd time) was calculated.
Next, on the regenerated amine compound, the above evaluation of the carbon dioxide absorption capacity was evaluated again, and changes of the carbon dioxide concentration in the desiccator were measured after 2 hours and 24 hours (3rd time).

[4] = Maximum carbon dioxide (CO2) release temperature of amine compound (DSC); type: physicochemical; conditions: amine compound with CO2 absorbed, DSC 23 to 250° C., 10° C./min, nitrogen
Method: (Maximum Carbon Dioxide (CO2) Release Temperature of Amine Compound)
After the above evaluation of the carbon dioxide absorption capacity was completed, the amine compound was removed from the desiccator to obtain the amine compound with carbon dioxide absorbed. The DSC measurement was performed on the amine compound with carbon dioxide absorbed as follows, to measure the maximum carbon dioxide release temperature of the amine compound. […] From the DSC curve obtained thereby, the temperature at which the endothermic amount associated with the desorption of carbon dioxide reached the maximum was calculated, and the temperature thereof was used as the maximum carbon dioxide release temperature of the amine compound.

[5] = Acid dissociation constant (pKa) of amine compound by acid-base titration; type: physicochemical; conditions: in purified water, 25±2° C.
Method: The acid dissociation constant of the amine compound was determined by the following method. • (1) Dissolving 0.2 g of the amine compound in 30 mL of the purified water. • (2) Calculating the acid dissociation constant (pKa) by titrating the solution obtained in the above (1) with the 0.1 N perchloric acid-acetic acid solution using the automatic potentiometric titrator (AT-610 produced by Kyoto Electronics Manufacturing Co., Ltd.).
Still, let the temperature at the time of measurement be 25±2° C.

| Structure (SMILES) | Amine Value [1] [mgKOH/g] | Maximum Endothermic Temperature [2] [°C] | Weight Retention 1st Time [3] [%] | Weight Retention 2nd Time [3] [%] | Maximum CO2 Release Temperature [4] [°C] | pKa ([5]; purified water, read-out: pKa) | pKa [5] |
| --- | --- | --- | --- | --- | --- | --- | --- |
| NCCCNCC1CCCC(CNCCCN)C1 (stereo not shown) [Example 5] | 844 | 246.7 | 100 | 100 | 97.8 | – | – |
| NCCNCCNCCN [Comparative Example 2, Triethylenetetramine, reference compound] | 1535 | 184.1 | 98 | 95 | 69.5 | – | – |
| NCC1CCC(CN)CC1 (single isomer, unassigned) [Example 2, 1,4-bis(aminomethyl)cyclohexane] | 789 | 155.6 | – | – | 135.2 | 10.9 | – |

Other lines, results leading:

| Amine Value [1] [mgKOH/g] | Maximum Endothermic Temperature [2] [°C] | Weight Retention 1st Time [3] [%] | Weight Retention 2nd Time [3] [%] | Maximum CO2 Release Temperature [4] [°C] | pKa ([5]; purified water, read-out: pKa) | pKa [5] | Structure (SMILES) |
| --- | --- | --- | --- | --- | --- | --- | --- |
| – | – | – | – | – | 10.9 | – | N#CCCNCC1CCCC(CN)C1 (stereo not shown) [Example 4] |
| 789 | 155.9 | – | – | 130 | – | 11.3 | NCC1CCC(CN)CC1 (single isomer, unassigned) [Example 3, 1,4-bis(aminomethyl)cyclohexane] |
